Here are results for one substance from patent US9125930B2, “EGFR aptamer inhibitor for use in therapy and diagnosis” (CONSIGLIO NAZIONALE DELLE RICERCHE, priority 2010, dated 2015).

One series deals with glioma U87MG. Nature of the series: Binding on U87MG cells. The arrangement: species or system human. The following applies: no or very low expression of EGFR; 100 nM. On the procedure: (§1) Binding experiments were performed with 5′-[^32P]-labeled RNA. For labeling 2′-F-Py RNAs were 5′-end dephosphorylated using bacterial alcaline phosphatase (Invitrogen, Carlsbad, Calif.) before [^32P]-5′-end-labeled using T4 kinase (Invitrogen) and γ-[^32P]-ATP (6×10^3 Ci/mmol, GE Healthcare Bio-Sciences, Uppsala, Sweden) according to the supplier's instructions.
(§2) For binding experiments on cells, 3.5×10^4 cells were plated in 24-well plates in triplicate and were incubated with CL4 42-81 aptamer the scrambled sequence used as a negative control at 100 nM concentration in 200 μl of DMEM serum free for 20 min at RT in the presence of 100 μg/ml polyinosine as a nonspecific competitor (Sigma, St. Louis, Mo.). After five washings with 500 μl DMEM, bound sequences were recovered in 300 μl of SDS 1%, and the amount of radioactivity recovered was counted.

The next series has as its system breast SKBR3. Nature of the series: Binding on SKBR3 cells. The arrangement: species or system human. Conditions: high level of EGFR; 100 nM. As for the experimental part:
as §1, §2

Another series concerns the target EGFR (Homo sapiens, UniProt P00533). Nature of the series: Immunoblot of EGF-dependent EGFR phosphorylation in A549 cells. It is filed as cell-based. The arrangement: endogenous in cells; host or cells: A549. The following applies: 200 nM aptamer, following 5 min of EGFR stimulation. On the procedure:
[…] The aptamers were subjected to a short denaturation-renaturation step (85° C. for 5 min, snap-cooled on ice for 2 min, and allowed to warm up to 37° C.) before each treatment. To prepare cell extracts, cells were washed twice in ice-cold PBS, and lysed in buffer A (50 mM Tris-HCl pH 8.0 buffer containing 150 mM NaCl, 1% Nonidet P-40, 2 mg/ml aprotinin, 1 mg/ml pepstatin, 2 mg/ml leupeptin, 1 mM Na3VO4). Protein concentration was determined by the Bradford assay using bovine serum albumin as the standard. The cell lysates were subjected to SDS-PAGE. Gels were electroblotted into polyvinylidene difluoride membranes (Millipore Co., Bedford, Mass.), and filters were probed with the indicated primary antibodies: anti-EGFR and anti-phospho-EGFR (Tyr1062), anti-phospho-44/42 MAP kinase (E10) (also indicated as p-Erk), anti-phospho-Akt, anti-Akt and anti-phospho-STAT3 (Tyr705), anti-ErbB2 (all from Cell Signaling, Beverly, Mass., United States); anti-Erk1, anti-EGFR, anti-ErbB3, anti-ErbB4 (C-16) (Santa Cruz Biotechnology, California, United States); anti-α-αtubulin (DM 1A) (Sigma, St. Louis, Mo.).
Proteins were visualized with peroxidase-conjugated secondary antibodies using the enhanced chemiluminescence system (GE Healthcare Bio-Sciences, Uppsala, Sweden). […]

On to “CL4 42-81: 2′-fluoropyrimidine nuclease-resistant RNA aptamer of 39 nt: 5′ GCCUUAGUAACGUGCUUUGAUGUCGAUUCGACAGGAGGC 3′ (SEQ ID No. 1) (2'-fluoro at CU, RNA at AG, backbone not given here)”, for which the “binding on U87MG cells” value in the series on glioma U87MG is “does not bind”. Besides, the “binding on SKBR3 cells” value in the series with breast SKBR3 is on record as “binds”. For the same substance, the “inhibition of EGF-dependent phosphorylation of EGFR” value with EGFR amounted to 60%.
